Measurements published in ChEMBL document CHEMBL4145686, “Discovery of a Potent and Selective Steroidal Glucocorticoid Receptor Antagonist (ORIC-101)” (J Med Chem, 2018).

Columns and labels:
Androgen receptor = target: T1, Androgen receptor (Homo sapiens, UniProt P10275); test: Agonist activity at AR in human MDA-MB-453 cells assessed as increase in SEC14L2 gene expression at 111 to 333 nM incubated for 24 hrs by RT-qPCR method; assay type: cell-based; settings: mda-mb-453, 24 h, 0.333 µM
T1 sequence (P10275 whole entry): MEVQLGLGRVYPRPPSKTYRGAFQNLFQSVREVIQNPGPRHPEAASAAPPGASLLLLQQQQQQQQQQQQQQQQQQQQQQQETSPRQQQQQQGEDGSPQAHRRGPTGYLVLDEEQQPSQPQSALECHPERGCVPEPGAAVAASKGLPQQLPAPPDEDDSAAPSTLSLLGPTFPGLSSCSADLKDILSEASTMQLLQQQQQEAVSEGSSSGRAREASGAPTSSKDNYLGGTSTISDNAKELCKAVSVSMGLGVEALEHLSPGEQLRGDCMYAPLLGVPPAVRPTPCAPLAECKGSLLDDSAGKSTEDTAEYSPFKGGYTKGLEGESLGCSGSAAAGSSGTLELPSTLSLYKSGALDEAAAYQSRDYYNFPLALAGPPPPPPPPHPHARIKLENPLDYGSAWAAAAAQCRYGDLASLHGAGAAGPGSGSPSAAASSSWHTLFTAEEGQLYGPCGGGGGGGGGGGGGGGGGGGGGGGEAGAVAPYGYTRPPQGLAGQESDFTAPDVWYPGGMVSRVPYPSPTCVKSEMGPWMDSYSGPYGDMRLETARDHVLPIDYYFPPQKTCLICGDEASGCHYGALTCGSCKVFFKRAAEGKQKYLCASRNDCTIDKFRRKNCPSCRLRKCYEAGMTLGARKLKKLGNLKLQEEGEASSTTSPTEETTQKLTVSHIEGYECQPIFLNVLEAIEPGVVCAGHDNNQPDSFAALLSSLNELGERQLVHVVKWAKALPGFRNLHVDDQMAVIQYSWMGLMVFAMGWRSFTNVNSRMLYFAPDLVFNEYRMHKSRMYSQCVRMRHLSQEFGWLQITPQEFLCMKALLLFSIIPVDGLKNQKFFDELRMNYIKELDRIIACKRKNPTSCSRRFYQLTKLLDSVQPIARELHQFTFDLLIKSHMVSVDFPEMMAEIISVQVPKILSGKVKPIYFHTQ

Cytochrome P450 2C9 = Cytochrome P450 2C9 (Homo sapiens, UniProt P11712); test: Inhibition of CYP2C9 (unknown origin) using […] as substrate; assay type: ADME
[1] = Half life in mouse at 0.5 mg/kg, iv; assay type: ADME, organism-based; settings: in vivo
Glucocorticoid receptor = target: T2, Glucocorticoid receptor (Rattus norvegicus, UniProt P06536); test: Antagonist activity at GR in rat PBMC assessed as reduction in dexamethasone-induced GILZ gene expression incubated for 24 hrs by RT-qPCR method; assay type: cell-based
T2 sequence (P06536 whole entry): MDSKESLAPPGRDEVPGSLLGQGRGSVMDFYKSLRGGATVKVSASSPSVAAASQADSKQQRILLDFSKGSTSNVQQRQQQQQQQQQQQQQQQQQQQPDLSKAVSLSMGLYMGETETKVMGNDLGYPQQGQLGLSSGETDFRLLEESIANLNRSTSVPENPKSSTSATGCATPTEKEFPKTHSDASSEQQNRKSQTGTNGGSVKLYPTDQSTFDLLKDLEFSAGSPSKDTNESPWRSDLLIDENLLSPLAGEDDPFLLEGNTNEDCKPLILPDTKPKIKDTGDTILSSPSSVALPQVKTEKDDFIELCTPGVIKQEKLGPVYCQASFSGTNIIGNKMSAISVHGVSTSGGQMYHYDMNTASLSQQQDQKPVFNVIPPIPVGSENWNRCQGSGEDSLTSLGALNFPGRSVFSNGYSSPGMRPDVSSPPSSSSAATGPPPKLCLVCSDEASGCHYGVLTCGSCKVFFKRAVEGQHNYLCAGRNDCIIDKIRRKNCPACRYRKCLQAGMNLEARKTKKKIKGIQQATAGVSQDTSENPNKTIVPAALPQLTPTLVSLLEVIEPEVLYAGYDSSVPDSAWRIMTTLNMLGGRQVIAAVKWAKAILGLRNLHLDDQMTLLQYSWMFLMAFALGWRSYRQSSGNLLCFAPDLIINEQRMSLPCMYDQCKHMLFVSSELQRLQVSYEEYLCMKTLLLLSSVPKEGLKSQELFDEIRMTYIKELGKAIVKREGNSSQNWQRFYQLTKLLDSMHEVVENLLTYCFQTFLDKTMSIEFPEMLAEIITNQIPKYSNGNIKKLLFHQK

[2] = target: T3, Mineralocorticoid receptor (Homo sapiens, UniProt P08235); test: Agonist activity at human MR expressed in CHO-K1 cells assessed as increase in protein interaction between MR and its coactivator SRC at 5 uM incubated for 24 hrs by beta-galactosidase based chemiluminescence assay; assay type: cell-based; settings: cho-k1, 24 h
T3 sequence (P08235 whole entry): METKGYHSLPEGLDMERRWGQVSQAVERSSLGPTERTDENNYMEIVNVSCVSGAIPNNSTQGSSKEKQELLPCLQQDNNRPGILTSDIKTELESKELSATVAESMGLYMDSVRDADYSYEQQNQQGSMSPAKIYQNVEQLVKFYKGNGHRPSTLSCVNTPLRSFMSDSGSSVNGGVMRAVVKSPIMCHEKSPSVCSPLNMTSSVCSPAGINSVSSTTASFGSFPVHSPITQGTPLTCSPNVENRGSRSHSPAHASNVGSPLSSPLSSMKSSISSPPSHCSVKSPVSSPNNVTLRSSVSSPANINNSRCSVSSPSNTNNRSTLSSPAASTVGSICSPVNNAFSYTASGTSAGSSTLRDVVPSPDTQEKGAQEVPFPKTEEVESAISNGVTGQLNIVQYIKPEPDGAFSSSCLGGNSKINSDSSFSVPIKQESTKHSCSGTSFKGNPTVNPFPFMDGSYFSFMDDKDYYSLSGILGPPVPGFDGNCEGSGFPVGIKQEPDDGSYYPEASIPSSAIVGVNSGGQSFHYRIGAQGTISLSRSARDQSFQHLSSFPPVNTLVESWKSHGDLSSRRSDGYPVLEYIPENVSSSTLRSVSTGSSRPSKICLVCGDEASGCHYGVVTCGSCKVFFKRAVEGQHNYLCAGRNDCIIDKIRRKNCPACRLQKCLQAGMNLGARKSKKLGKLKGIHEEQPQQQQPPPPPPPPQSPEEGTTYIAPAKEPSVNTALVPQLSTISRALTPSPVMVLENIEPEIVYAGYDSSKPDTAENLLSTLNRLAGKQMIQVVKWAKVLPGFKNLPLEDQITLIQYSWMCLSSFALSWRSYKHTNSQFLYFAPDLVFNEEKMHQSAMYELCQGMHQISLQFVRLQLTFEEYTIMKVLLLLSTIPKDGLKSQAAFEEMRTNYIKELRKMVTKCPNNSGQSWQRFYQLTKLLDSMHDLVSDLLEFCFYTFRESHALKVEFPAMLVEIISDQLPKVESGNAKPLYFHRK

Chain of Cytochrome P450 2C9 (P11712 whole entry): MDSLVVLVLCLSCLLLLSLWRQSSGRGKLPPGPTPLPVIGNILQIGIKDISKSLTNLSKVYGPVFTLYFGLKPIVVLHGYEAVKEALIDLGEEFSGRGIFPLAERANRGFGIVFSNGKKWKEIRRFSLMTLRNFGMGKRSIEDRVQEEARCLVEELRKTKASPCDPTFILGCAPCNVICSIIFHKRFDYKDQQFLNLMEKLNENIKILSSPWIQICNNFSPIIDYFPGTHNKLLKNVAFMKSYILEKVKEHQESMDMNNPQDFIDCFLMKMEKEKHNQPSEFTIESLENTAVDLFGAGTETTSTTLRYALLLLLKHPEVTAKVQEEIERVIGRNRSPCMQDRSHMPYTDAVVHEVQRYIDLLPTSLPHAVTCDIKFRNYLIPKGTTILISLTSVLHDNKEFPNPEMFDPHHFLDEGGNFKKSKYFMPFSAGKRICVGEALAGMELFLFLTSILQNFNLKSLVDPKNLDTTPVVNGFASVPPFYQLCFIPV

Q: What does the source list for `CC(C)N(C)c1ccc([C@H]2C[C@@]3(C)[C@@H](CC[C@@]3(O)C#CC(C)(C)C)[C@@H]3CCC4=CC(=O)CC[C@@H]4[C@H]32)cc1`?
A: Activity (Androgen receptor): Not Active; IC50 (Cytochrome P450 2C9): > 10 µM; half-life [1]: 290 min; IC50 (Glucocorticoid receptor): 59.4 nM; Activity [2]: Not Active
